# From patent US20010023254A1, “Use of sulfamate derivatives for treating impulse control disorders” (priority 2000, published 2001)
# Entries after “also recorded” stand apart in the source; their conditions may differ.
# Key:
# [1] = tested on: Patients with Overeating, Overweight, and Obesity; experiment: Patients with overeating, overweight and obesity treated clinically with topiramate; format: in vivo, human
# Description: (§1) In the examples, patients were treated with open-label topiramate starting at 25 mg/qHS and the dosage increased by the patient in 25 mg increments as tolerated by the subjects until a response is seen up to a maximum of 1200 mg. [table]
# [2] = tested on: Patients with Binge Eating Disorder (BED); experiment: Patients with Binge Eating Disorder (BED) treated clinically with open-label topiramate; format: in vivo, human
# Description: as §1
# [3] = tested on: patients with epilepsy; settings: cited from earlier work
# [4] = tested on: patients who coincidentally had binge eating disorder; experiment: Clinical studies of topiramate in mood disorders; patients who coincidentally had binge eating disorder; format: in vivo, human; settings: several mood disorder patients with coincident binge eating disorder
# Source text: The activity of the compounds of formula I in treating ICD's was first evidenced in clinical studies conducted to evaluate the efficacy of topiramate in treating mood disorders.
# [5] = tested on: Persons with bulimia nervosa; settings: cited from earlier work
# [6] = Pt 5, first trial, max dose 250 mg/day
# [7] = Pt 5, second trial, max dose 200 mg/day
# [8] = Pt 5, first trial, max dose 100 mg/day
# [9] = Pt 5, second trial, max dose 100 mg/day
compound,measurement,setting,value
"CC1(C)O[C@@H]2[C@@H](CO[C@@]3(COS(N)(=O)=O)OC(C)(C)O[C@@H]23)O1 [Topiramate, 2,3;4,5-bis-O-(1-methylethylidene)-beta -D-fructopyranose sulfamate]",Loss of weight,"[1]; Pt 1, max dose 700 mg/day",9 lbs
same,Response of BD (Bipolar Disorder),"[1]; Pt 1, max dose 700 mg/day",No response of BD
same,Loss of weight,"[1]; Pt 2, max dose 300 mg/day",16 lbs
same,Response of BD (Bipolar Disorder),"[1]; Pt 2, max dose 300 mg/day",Remission of BD
same,Response of overeating,"[1]; Pt 2, max dose 300 mg/day",Remission of overeating
same,Loss of weight,"[1]; Pt 3 ADJ, max dose 400 mg/day",7 lbs
same,Response of BD (Bipolar Disorder),"[1]; Pt 3 ADJ, max dose 400 mg/day",Moderate improvement of BD
same,Response of overeating,"[1]; Pt 3 ADJ, max dose 400 mg/day",Moderate improvement of overeating
same,Loss of weight,"[1]; Pt 4, max dose 350 mg/day",5 lbs
same,Response of BD (Bipolar Disorder),"[1]; Pt 4, max dose 350 mg/day",No response of BD
same,Response of overeating,"[1]; Pt 4, max dose 350 mg/day",Mild improvement in overeating
same,Loss of weight,[1]; [6],7 lbs
same,Response of BD (Bipolar Disorder),[1]; [6],First Trial: Worsening of BD
same,Response of overeating,[1]; [6],Mild decrease of overeating
same,"Body weight, before-after",[1]; [7],154-155 lbs
same,Gain of weight,[1]; [7],1 lb
same,Response of overeating,[1]; [7],Mild decrease of overeating
same,Loss of weight,"[1]; Pt 6, max dose 800 mg/day",9 lbs
same,Response of BD (Bipolar Disorder),"[1]; Pt 6, max dose 800 mg/day, BD in remission at start",Worsening of BD
same,Discontinuation and its reason (adverse effects),"[1]; Pt 7 NLR, max dose 300 mg/day",Discontinued due to anorexia
same,Loss of weight,"[1]; Pt 7 NLR, max dose 300 mg/day",46 lbs
same,Response of BD (Bipolar Disorder),"[1]; Pt 7 NLR, max dose 300 mg/day",Worsening of BD
same,Loss of weight,"[1]; Pt 8 PR, max dose 700 mg/day",19 lbs
same,Reason for discontinuation (adverse effects),"[1]; Pt 8 PR, max dose 700 mg/day",G.I. Distress
same,Response of BD (Bipolar Disorder),"[1]; Pt 8 PR, max dose 700 mg/day",Moderate improvement of BD
same,Response of overeating,"[1]; Pt 8 PR, max dose 700 mg/day",Marked improvement in overeating
same,Loss of weight,"[2]; Pt 1, max dose 1200 mg/day",Loss of 107 lbs.
same,Response of BD (Bipolar Disorder),"[2]; Pt 1, max dose 1200 mg/day",Remission of BD
same,Response of BED (Binge Eating Disorder),"[2]; Pt 1, max dose 1200 mg/day",Remission of BED
same,Discontinuation and its reason (adverse effects),"[2]; Pt 2, max dose 150 mg/day","Discontinued due to sedation,; also recorded: cognitive dulling"
same,Loss of weight,"[2]; Pt 2, max dose 150 mg/day",Loss of 5 lbs.
same,Response of BD (Bipolar Disorder),"[2]; Pt 2, max dose 150 mg/day","Mild improvement of BD,"
same,Response of BED (Binge Eating Disorder),"[2]; Pt 2, max dose 150 mg/day","Moderate decrease of BED,"
same,Loss of weight,"[2]; Pt 3, max dose 1200 mg/day",Loss of 50.5 lbs
same,Response of BD (Bipolar Disorder),"[2]; Pt 3, max dose 1200 mg/day",Moderate improvement of BD.
same,Response of BED (Binge Eating Disorder),"[2]; Pt 3, max dose 1200 mg/day",Remission of BED
same,Loss of weight,"[2]; Pt 4, max dose 900 mg/day",Loss of 30.5 lbs.
same,Response of BD (Bipolar Disorder),"[2]; Pt 4, max dose 900 mg/day","Moderate improvement of BD,"
same,Response of BED (Binge Eating Disorder),"[2]; Pt 4, max dose 900 mg/day","Marked improvement of BED,"
same,Discontinuation and its reason (adverse effects),[2]; [8],discontinued due to GI distress
same,Response of BED (Binge Eating Disorder),[2]; [8],"First trial: No response of BED,"
same,Loss of weight,[2]; [9],Loss of 11 lbs.
same,Response of BED (Binge Eating Disorder),[2]; [9],Remission of BED
same,Response of Compulsive Buying,[2]; [9],Remission of Compulsive
same,Response of BD (Bipolar Disorder),"[2]; Pt 5, second trial, max dose 100 mg/day, BD in remission at start",Second Trial: Worsening of BD
same,Response of BED (Binge Eating Disorder),"[2]; Pt 6, max dose 100 mg/day",No response of BED
same,Weight change,"[2]; Pt 6, max dose 100 mg/day",No weight change
same,Efficacy in simple and complex partial seizures and secondarily generalized seizures,"[3]; clinical trials of human epilepsy, adjunctive therapy or monotherapy",effective
same,Effect on appetite,[3]; controlled trials in patients with epilepsy,suppression of appetite
same,Effect on weight,"[3]; controlled trials in patients with epilepsy, unrelated to binge eating",weight loss
same,"Binging, as reported by patients",[4],marked reduction in their binging
same,"Weight, as reported by patients",[4],concurrent loss in weight
O=C1NC(=O)C(c2ccccc2)(c2ccccc2)N1 [phenytoin],Binge eating,[5],reduced binge eating
